Experimental data reported in patent US9943569B2, “Method for preventing or reducing postoperative pulmonary complications” (OSAKA UNIVERSITY, priority 2015, dated 2018).

What was measured:
[1] = system: patients undergoing esophagectomy; assay: Postoperative complications according to the Clavien-Dindo classification; assay type: in vivo, human
Source text: Forty patients with primary esophageal cancer who underwent esophagectomy were selected to participate in a randomized, placebo-controlled phase II study. The patients were selected based on the following eligibility criteria: (1) thoracic esophageal cancer treated by performing radical esophagectomy with gastric tube reconstruction; (2) age 20 to 75 years; (3) adequate functioning of major organs; (4) no other active malignancies; and (5) provision of written informed consent. The following exclusions criteria were used: (1) preoperative diagnosis of esophageal cancer invasion to the aorta or trachea and other organs; (2) patients with multiple cancer; (3) severe respiratory problems, such as emphysema; (4) patients with prior ischemic heart disease; (5) liver cirrhosis or active hepatitis; (6) renal failure requiring dialysis treatment; (7) poorly controlled diabetes mellitus or disease requiring insulin treatment; (8) consecutive use of steroids; and (9) mental disorder. The patients were randomly divided into a ghrelin group and a placebo group at a 1:1 ratio. The approach for thoracic manipulation (i.e., open or thoracoscopic surgery) was used as the only stratification factor. Group allocation was performed before the initiation of surgery. The study was performed in a double-blind manner, and an independent researcher assessed outcomes.
(§1) The primary endpoint of this study was SIRS duration. The secondary endpoints were postoperative complications, serum C-reactive protein (CRP) and IL-6 levels, time required to attain a positive nitrogen balance, and changes in body weight and body composition. Postoperative complications were defined as adverse events caused by surgery. Patients received an intravenous continuous infusion of ghrelin (0.5 μg/kg/h) or placebo (pure saline) for 5 days postoperatively. Ghrelin was diluted to a final volume of 48 mL with saline, and the solution was administered at a rate of 2 mL/h by using an infusion pump through a central venous catheter inserted into the right subclavian vein. The same amount of ghrelin was administered via intravenous infusion during the 5 days of treatment; the dose was calculated on the basis of body weight on the day before surgery. Patients in the placebo group received the corresponding infusion containing pure saline using same procedure.
Blood sampling was performed at the following 7 time points: before surgery; 2 hours after initiation of surgery (during thoracotomy); 4 hours after initiation of surgery (during laparotomy); and on PODs 1, 3, 7, and 10. Complete blood count was performed every day for at least 10 PODs. If the leukocyte count was not within the normal range on POD10, complete blood counts were performed daily until it was within the normal range for 3 consecutive days. SIRS was diagnosed according to the criteria proposed by the American College of Chest Physicians/Society of Critical Care Medicine Consensus Conference^32 and when 2 or more of the following criteria were present: (1) body temperature less than 36° C. or more than 38° C.; (2) heart rate more than 90 beats per minute; (3) tachypnea with more than 20 breaths per minute or an arterial partial pressure of carbon dioxide less than 32 mm Hg; and (4) white blood cell count less than 4000 cells/mm^3, >12,000 cells/mm^3, or an immature (band) form more than 10%. Postoperative complications were evaluated according to the Clavien-Dindo classification.^33 Grade I required no treatment, grade II required medical therapy, grade Ma required interventions but not general anesthesia, grade Mb required general anesthesia, grade IV represented life-threatening states that required intensive care, and grade V represented death.

[2] = system: GH secretion; assay: Mode of ghrelin administration and GH secretion (unpublished data); assay type: in vivo; settings: continuous infusion vs periodic injection
[3] = system: patients undergoing esophagectomy; assay: Time required to attain positive nitrogen balance; assay type: in vivo, human; settings: ghrelin 0.5 μg/kg/h continuous i.v. for 5 days, n=20
Procedure: as §1

[4] = system: patients undergoing esophagectomy; assay: SIRS duration after esophagectomy, randomized placebo-controlled phase II study; assay type: in vivo, human; settings: ghrelin 0.5 μg/kg/h continuous i.v. infusion for 5 days, n=20
Procedure: Forty patients undergoing esophagectomy were randomly assigned to either the ghrelin group (n=20), which received continuous infusion of ghrelin (0.5 μg/kg/h) for 5 days, or the placebo group (n=20), which received pure saline for 5 days. The primary endpoint was SIRS duration. The secondary endpoints were the incidence of postoperative complications, time of a negative nitrogen balance, changes in body weight and composition, and levels of inflammatory markers, including C-reactive protein (CRP) and interleukin-6 (IL-6).
Forty patients with primary esophageal cancer who underwent esophagectomy were selected to participate in a randomized, placebo-controlled phase II study. The patients were selected based on the following eligibility criteria: (1) thoracic esophageal cancer treated by performing radical esophagectomy with gastric tube reconstruction; (2) age 20 to 75 years; (3) adequate functioning of major organs; (4) no other active malignancies; and (5) provision of written informed consent. […] The study was performed in a double-blind manner, and an independent researcher assessed outcomes.
The primary endpoint of this study was SIRS duration. […] The same amount of ghrelin was administered via intravenous infusion during the 5 days of treatment; the dose was calculated on the basis of body weight on the day before surgery. […]

[5] = system: patients undergoing esophagectomy; assay: Changes in body weight and body composition (dual-energy X-ray absorptiometry); assay type: in vivo, human; settings: preoperatively vs POD10
Procedure: Dual-energy X-ray absorptiometry (Hologic QDR-2000; Hologic Inc, Waltham, Mass.) was used to assess total body composition, including lean body weight and fat body weight, of all participants.^35 These measurements were performed preoperatively and 10 days postoperatively with the subject in the supine position.
However, in the postoperative test, rapid turnover proteins used as nutritional markers, such as, transthyretin, transferrin, and retinol binding protein, were more highly retained in the ghrelin group than in the placebo group. This finding is consistent with the findings in previous studies that ghrelin prevented nutritional deterioration. […] We compared changes in weight and body composition between the 2 groups. During the study period, changes in body weight were monitored as a percentage of the weight on admission (preoperation).

[6] = ghrelin 0.5 μg/kg/h continuous i.v. for 5 days, n=20
[7] = dual-energy X-ray absorptiometry

SMILES: CCCCCCCC(=O)OC[C@H](NC(=O)[C@H](CO)NC(=O)CN)C(=O)N[C@@H](Cc1ccccc1)C(=O)N[C@@H](CC(C)C)C(=O)N[C@@H](CO)C(=O)N1CCC[C@H]1C(=O)N[C@@H](CCC(=O)O)C(=O)N[C@@H](Cc1cnc[nH]1)C(=O)N[C@@H](CCC(N)=O)C(=O)N[C@@H](CCCNC(=N)N)C(=O)N[C@H](C(=O)N[C@@H](CCC(N)=O)C(=O)N[C@@H](CCC(N)=O)C(=O)N[C@@H](CCCNC(=N)N)C(=O)N[C@@H](CCCCN)C(=O)N[C@@H](CCC(=O)O)C(=O)N[C@@H](CO)C(=O)N[C@@H](CCCCN)C(=O)N[C@@H](CCCCN)C(=O)N1CCC[C@H]1C(=O)N1CCC[C@H]1C(=O)N[C@@H](C)C(=O)N[C@@H](CCCCN)C(=O)N[C@@H](CC(C)C)C(=O)N[C@@H](CCC(N)=O)C(=O)N1CCC[C@H]1C(=O)N[C@@H](CCCNC(=N)N)C(=O)O)C(C)C [ghrelin]
- Anastomotic leak, number of patients ([1]; Grade 0, n=20): 19
- Arrhythmia, number of patients ([1]; Grade 0, n=20): 19
- Bleeding, number of patients ([1]; Grade 0, n=20): 20
- Lymphorrhea, number of patients ([1]; Grade 0, n=20): 20
- Pneumonia, atelectasis, number of patients ([1]; Grade 0, n=20): 14
- Recurrent nerve paralysis, number of patients ([1]; Grade 0, n=20): 18
- Wound infection, number of patients ([1]; Grade 0, n=20): 19
- Anastomotic leak, number of patients ([1]; Grade I, II, n=20): 1
- Arrhythmia, number of patients ([1]; Grade I, II, n=20): 1
- Bleeding, number of patients ([1]; Grade I, II, n=20): 0
- Lymphorrhea, number of patients ([1]; Grade I, II, n=20): 0
- Pneumonia, atelectasis, number of patients ([1]; Grade I, II, n=20): 4
- Recurrent nerve paralysis, number of patients ([1]; Grade I, II, n=20): 2
- Wound infection, number of patients ([1]; Grade I, II, n=20): 1
- Anastomotic leak, number of patients ([1]; Grade III, IV, n=20): 0
- Arrhythmia, number of patients ([1]; Grade III, IV, n=20): 0
- Bleeding, number of patients ([1]; Grade III, IV, n=20): 0
- Lymphorrhea, number of patients ([1]; Grade III, IV, n=20): 0
- Pneumonia, atelectasis, number of patients ([1]; Grade III, IV, n=20): 2
- Recurrent nerve paralysis, number of patients ([1]; Grade III, IV, n=20): 0
- Wound infection, number of patients ([1]; Grade III, IV, n=20): 0
- Postoperative complications of higher than grade 1 (Clavien-Dindo), number of patients [1, 6]: 10
- Postoperative complications of higher than grade 1 (Clavien-Dindo), share of patients [1, 6]: 50%
- incidence of pulmonary complications, including postoperative pneumonia and atelectasis, versus placebo group ([1]; ghrelin 0.5 μg/kg/h continuous i.v. for 5 days, P=0.016): significantly lower
- GH secretion by mode of ghrelin administration [2]: continuous infusion was better than periodic injection
- time required to attain positive nitrogen balance [3]: 2.6 ± 1.6 days
- SIRS duration [4]: 3.0 ± 2.9 days
- percent decrease in total weight [5]: −3.5±2.7%
- percent decrease in body fat weight [5, 7]: −3.2±5.0%
- percent decrease in lean body weight [5, 7]: −4.2%±3.0
